Assay results as given in patent US20250042876A1, “HERBICIDAL PYRAZOLE PYRIMIDINE COMPOUNDS” (SYNGENTA CROP PROTECTION AG, priority 2021, published 2025).

Key:
Format in all cases: in vivo
Settings in all cases: 250 g/ha, evaluated after 13 days
[1] = tested on: Amaranthus palmeri (AMAPA); assay: Post-emergence herbicidal test, glasshouse
Experimental: (§1) Seeds of a variety of test species are sown in standard soil in pots Amaranthus palmeri (AMAPA), Amaranthus retoflexus (AMARE), Setaria faberi (SETFA), Echinochloa crus-galli (ECHCG), Ipomoea hederacea (IPOHE)). After cultivation for one day (pre-emergence) or after 8 days cultivation (post-emergence) under controlled conditions in a glasshouse (at 24/16° C., day/night; 14 hours light; 65% humidity), the plants are sprayed with an aqueous spray solution derived from the formulation of the technical active ingredient in acetone/water (50:50) solution containing 0.5% Tween 20 (polyoxyethelyene sorbitan monolaurate, CAS RN 9005-64-5). Compounds are applied at 250 g/ha unless otherwise stated. The test plants are then grown in a glasshouse under controlled conditions in a glasshouse (at 24/16° C., day/night; 14 hours light; 65% humidity) and watered twice daily. After 13 days for pre and post-emergence, the test is evaluated for the percentage damage caused to the plant. The biological activities are shown in the following table on a five-point scale (5=81-100%; 4=61-80%; 3=41-60%; 2=21-40%; 1=0-20%).

[2] = tested on: Amaranthus retoflexus (AMARE); assay: Post-emergence herbicidal test, glasshouse
Experimental: as §1

[3] = tested on: Echinochloa crus-galli (ECHCG); assay: Post-emergence herbicidal test, glasshouse
Experimental: as §1

[4] = tested on: Ipomoea hederacea (IPOHE); assay: Post-emergence herbicidal test, glasshouse
Experimental: as §1

Setaria faberi (SETFA) [5] = assay: Post-emergence herbicidal test, glasshouse
Experimental: as §1

[6] = tested on: Amaranthus palmeri (AMAPA); assay: Pre-emergence herbicidal test, glasshouse
Experimental: as §1

[7] = tested on: Amaranthus retoflexus (AMARE); assay: Pre-emergence herbicidal test, glasshouse
Experimental: as §1

[8] = tested on: Echinochloa crus-galli (ECHCG); assay: Pre-emergence herbicidal test, glasshouse
Experimental: as §1

[9] = tested on: Ipomoea hederacea (IPOHE); assay: Pre-emergence herbicidal test, glasshouse
Experimental: as §1

Setaria faberi (SETFA) [10] = assay: Pre-emergence herbicidal test, glasshouse
Experimental: as §1

SMILES | AMAPA percentage damage caused to the plant (five-point scale) [1] | AMARE percentage damage caused to the plant (five-point scale) [2] | ECHCG percentage damage caused to the plant (five-point scale) [3] | IPOHE percentage damage caused to the plant (five-point scale) [4] | SETFA percentage damage caused to the plant (five-point scale) (Setaria faberi (SETFA) [5]) | AMAPA percentage damage caused to the plant (five-point scale) [6] | AMARE percentage damage caused to the plant (five-point scale) [7] | ECHCG percentage damage caused to the plant (five-point scale) [8] | IPOHE percentage damage caused to the plant (five-point scale) [9] | SETFA percentage damage caused to the plant (five-point scale) (Setaria faberi (SETFA) [10])
FC(F)(F)c1cc(Cc2ncc(Cl)cn2)n(-c2ccc(Cl)cc2)n1 [Compound 1.008] | 5 (5=81-100%) | 5 (5=81-100%) | 5 (5=81-100%) | 3 (3=41-60%) | 5 (5=81-100%) | 5 (5=81-100%) | 5 (5=81-100%) | 5 (5=81-100%) | 4 (4=61-80%) | 5 (5=81-100%)
Cc1cnc(Cc2cc(C(F)(F)F)nn2-c2ccc(C(F)(F)F)cc2)nc1 [Compound 1.011] | 5 (5=81-100%) | 5 (5=81-100%) | 5 (5=81-100%) | 3 (3=41-60%) | 5 (5=81-100%) | 5 (5=81-100%) | 5 (5=81-100%) | 5 (5=81-100%) | 5 (5=81-100%) | 5 (5=81-100%)
N#Cc1cnc(Cc2cc(C(F)(F)F)nn2-c2ccc(C(F)(F)F)cc2)nc1 [Compound 1.012] | 5 (5=81-100%) | 5 (5=81-100%) | 4 (4=61-80%) | 4 (4=61-80%) | 5 (5=81-100%) | 5 (5=81-100%) | 5 (5=81-100%) | 5 (5=81-100%) | 5 (5=81-100%) | 5 (5=81-100%)
FC(F)c1cc(Cc2ncc(Cl)cn2)n(-c2ccc(C(F)(F)F)cc2)n1 [Compound 1.016] | 5 (5=81-100%) | 5 (5=81-100%) | 5 (5=81-100%) | 3 (3=41-60%) | 5 (5=81-100%) | 5 (5=81-100%) | 5 (5=81-100%) | 5 (5=81-100%) | 5 (5=81-100%) | 5 (5=81-100%)
FC(F)c1cc(Cc2ncc(Cl)cn2)n(-c2ccc(Cl)nc2)n1 [Compound 1.035] | 4 (4=61-80%) | 4 (4=61-80%) | 3 (3=41-60%) | 4 (4=61-80%) | 3 (3=41-60%) | 5 (5=81-100%) | 5 (5=81-100%) | 4 (4=61-80%) | 4 (4=61-80%) | 5 (5=81-100%)
